The target of test [1] is T1, human α1G T-type channels (Homo sapiens, UniProt O43497).
T1 construct: expressed in transfected cells; host or cells: HEK 293
Description: T-type calcium channel block, whole cell patch clamp (α1G). The format is cell-based. The settings on record: HEK cells stably expressing human α1G; mainly non-inactivated protocol; values above 10 μM represented as 10 μM, values below 0.30 μM represented as 0.30 μM. The gist of the method: (§1)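 Whole-cell patch clamp was run on HEK293 cells stably expressing human α1G or α1H. Cells were held at −110 mV and given a 1 s pre-pulse to −100 mV (non-inactivating protocol) before a 50 ms test pulse to −40 mV. Compounds were applied by gravity in external solution with 0.1-0.01% DMSO, and IC50 values are in μM, capped at 10 μM.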
For orientation: In patch-clamp work, channel activity is measured electrically.

Test [2] concerns the target T2, human α1H T-type channels (Homo sapiens, UniProt O95180).
T2 construct: expressed in transfected cells; host or cells: HEK 293
As to the kind of experiment: T-type calcium channel block, whole cell patch clamp (α1H). The settings on record: HEK cells stably expressing human α1H; mainly non-inactivated protocol; values above 10 μM represented as 10 μM. It counts as cell-based. The essentials: as §1

Molecules are shown by their SMILES. Bounds are passed on as bounds.

T2 sequence (O95180 whole entry): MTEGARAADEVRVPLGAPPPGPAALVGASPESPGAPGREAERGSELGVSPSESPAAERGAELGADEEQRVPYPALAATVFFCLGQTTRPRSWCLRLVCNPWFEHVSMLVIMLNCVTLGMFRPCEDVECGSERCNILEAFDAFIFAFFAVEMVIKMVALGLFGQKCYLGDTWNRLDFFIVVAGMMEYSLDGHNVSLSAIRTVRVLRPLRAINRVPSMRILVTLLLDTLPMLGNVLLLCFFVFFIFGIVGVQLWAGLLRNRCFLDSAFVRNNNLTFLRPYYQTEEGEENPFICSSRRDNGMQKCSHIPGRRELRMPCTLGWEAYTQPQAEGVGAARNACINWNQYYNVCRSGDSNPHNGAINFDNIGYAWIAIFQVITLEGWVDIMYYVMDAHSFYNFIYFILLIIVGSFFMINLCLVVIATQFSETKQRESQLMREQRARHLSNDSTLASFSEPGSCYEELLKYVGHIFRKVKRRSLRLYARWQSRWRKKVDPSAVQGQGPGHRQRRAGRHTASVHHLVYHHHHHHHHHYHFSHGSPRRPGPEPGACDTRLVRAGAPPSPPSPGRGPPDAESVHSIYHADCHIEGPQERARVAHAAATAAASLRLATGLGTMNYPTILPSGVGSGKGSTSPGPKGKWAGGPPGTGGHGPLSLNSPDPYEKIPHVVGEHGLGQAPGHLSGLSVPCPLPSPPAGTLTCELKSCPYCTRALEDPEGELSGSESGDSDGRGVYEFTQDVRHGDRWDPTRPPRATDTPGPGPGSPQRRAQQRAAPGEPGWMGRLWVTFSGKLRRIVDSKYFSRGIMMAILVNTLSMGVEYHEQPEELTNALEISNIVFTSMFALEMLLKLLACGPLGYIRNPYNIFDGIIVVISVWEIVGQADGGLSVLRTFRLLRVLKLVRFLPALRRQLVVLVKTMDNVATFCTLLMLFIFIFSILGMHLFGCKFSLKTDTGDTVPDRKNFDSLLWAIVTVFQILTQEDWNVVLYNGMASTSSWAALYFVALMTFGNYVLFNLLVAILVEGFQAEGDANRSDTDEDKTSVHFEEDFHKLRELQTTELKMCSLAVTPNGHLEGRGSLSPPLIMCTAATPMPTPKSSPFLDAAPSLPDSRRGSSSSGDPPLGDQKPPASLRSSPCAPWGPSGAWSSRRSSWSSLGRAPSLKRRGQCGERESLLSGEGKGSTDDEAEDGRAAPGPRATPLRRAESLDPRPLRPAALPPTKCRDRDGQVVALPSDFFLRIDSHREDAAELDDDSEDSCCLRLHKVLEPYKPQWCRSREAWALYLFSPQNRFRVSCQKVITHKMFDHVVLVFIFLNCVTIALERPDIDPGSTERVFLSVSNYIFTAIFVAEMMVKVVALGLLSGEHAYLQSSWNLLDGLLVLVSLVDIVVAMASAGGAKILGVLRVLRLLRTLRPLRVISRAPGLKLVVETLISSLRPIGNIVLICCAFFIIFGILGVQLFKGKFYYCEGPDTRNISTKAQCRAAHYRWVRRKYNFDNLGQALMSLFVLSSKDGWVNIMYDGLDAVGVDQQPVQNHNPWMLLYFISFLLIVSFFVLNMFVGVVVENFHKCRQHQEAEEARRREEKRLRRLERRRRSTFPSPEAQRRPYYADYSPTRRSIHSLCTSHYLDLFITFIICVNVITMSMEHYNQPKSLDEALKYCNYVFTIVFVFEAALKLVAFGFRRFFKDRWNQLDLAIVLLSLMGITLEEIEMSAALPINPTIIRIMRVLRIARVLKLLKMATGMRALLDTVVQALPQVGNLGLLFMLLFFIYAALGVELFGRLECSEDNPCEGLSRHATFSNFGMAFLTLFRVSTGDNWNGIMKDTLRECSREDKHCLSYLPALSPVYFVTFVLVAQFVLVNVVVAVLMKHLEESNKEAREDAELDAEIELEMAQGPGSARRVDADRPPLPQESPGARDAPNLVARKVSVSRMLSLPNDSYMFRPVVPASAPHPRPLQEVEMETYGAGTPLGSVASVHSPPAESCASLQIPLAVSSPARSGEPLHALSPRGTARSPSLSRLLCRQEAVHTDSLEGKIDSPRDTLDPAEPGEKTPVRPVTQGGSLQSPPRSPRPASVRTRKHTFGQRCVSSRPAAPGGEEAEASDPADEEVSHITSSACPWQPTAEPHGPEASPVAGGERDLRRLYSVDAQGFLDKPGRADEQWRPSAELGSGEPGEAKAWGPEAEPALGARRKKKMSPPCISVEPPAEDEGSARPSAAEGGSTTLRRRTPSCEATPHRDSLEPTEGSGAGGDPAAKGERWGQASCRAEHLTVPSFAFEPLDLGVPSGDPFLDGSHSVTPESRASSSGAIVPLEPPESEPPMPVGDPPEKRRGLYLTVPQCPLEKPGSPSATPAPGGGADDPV
T1 sequence (O43497 whole entry): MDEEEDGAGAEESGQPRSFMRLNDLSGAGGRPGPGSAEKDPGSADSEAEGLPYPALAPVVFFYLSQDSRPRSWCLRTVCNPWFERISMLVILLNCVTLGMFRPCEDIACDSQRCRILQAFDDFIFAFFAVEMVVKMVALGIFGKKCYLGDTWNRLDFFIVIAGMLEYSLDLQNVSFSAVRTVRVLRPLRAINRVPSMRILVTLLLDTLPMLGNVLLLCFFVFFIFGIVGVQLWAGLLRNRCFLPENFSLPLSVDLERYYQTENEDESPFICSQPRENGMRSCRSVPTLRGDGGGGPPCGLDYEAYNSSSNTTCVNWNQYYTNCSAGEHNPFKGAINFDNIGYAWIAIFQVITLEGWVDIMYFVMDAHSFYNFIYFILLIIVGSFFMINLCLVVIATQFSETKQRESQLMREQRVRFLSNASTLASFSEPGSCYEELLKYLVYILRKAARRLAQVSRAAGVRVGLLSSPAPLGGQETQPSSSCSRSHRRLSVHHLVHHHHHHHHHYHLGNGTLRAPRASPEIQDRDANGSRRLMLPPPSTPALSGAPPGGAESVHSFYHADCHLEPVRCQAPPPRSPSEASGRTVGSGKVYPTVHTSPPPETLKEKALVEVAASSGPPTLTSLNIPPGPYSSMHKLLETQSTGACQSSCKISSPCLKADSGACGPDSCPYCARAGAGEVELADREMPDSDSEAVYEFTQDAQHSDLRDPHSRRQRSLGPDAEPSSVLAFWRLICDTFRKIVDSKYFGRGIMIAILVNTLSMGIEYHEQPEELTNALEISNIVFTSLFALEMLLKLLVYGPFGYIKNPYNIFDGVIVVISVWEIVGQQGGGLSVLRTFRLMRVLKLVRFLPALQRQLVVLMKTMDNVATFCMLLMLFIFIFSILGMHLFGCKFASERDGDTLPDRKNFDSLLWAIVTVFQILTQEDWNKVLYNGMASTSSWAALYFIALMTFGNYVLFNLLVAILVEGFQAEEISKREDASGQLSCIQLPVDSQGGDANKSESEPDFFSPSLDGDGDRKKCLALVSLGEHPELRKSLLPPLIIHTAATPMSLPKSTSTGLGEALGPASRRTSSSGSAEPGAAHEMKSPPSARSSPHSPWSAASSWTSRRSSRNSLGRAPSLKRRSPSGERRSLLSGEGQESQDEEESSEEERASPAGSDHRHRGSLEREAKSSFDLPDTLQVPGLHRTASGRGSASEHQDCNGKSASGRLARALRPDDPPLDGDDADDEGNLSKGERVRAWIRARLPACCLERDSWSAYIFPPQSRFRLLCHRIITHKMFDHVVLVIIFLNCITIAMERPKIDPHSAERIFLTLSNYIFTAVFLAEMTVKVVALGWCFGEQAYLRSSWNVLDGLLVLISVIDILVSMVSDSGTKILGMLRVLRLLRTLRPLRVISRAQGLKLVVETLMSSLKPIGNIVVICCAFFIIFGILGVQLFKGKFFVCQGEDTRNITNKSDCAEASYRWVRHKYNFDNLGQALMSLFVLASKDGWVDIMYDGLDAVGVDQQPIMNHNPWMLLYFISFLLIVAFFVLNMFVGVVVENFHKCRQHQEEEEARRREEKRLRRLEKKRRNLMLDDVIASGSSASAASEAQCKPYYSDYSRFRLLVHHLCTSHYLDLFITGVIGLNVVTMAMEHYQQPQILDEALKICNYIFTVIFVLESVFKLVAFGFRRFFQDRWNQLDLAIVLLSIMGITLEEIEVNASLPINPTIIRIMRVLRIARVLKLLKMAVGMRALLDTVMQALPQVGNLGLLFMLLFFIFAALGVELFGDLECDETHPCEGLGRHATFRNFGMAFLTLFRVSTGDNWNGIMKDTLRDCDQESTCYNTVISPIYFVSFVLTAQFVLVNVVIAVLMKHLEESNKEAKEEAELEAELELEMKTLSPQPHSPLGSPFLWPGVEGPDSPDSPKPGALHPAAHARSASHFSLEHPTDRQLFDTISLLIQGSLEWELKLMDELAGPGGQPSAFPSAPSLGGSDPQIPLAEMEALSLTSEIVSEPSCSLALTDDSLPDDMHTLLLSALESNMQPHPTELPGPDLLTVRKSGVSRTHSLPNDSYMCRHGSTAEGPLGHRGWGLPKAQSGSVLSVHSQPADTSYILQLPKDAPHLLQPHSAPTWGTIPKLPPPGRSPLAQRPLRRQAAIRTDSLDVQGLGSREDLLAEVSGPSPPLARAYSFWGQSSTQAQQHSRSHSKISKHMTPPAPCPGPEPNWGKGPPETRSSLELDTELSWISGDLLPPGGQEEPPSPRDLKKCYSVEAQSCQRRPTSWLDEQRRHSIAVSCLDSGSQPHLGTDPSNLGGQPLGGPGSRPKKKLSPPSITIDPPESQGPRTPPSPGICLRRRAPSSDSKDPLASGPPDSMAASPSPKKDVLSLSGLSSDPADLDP

For `CCC(CC)NC(=O)CN[C@H]1CC[C@H](CNC(=O)c2cc(C(F)(F)F)cc(C(F)(F)F)c2)CC1` [Compound 57, N-((trans-4-(2-oxo-2-(pentan-3-ylamino)ethylamino)cyclohexyl)methyl)-3,5-bis(trifluoromethyl)benzamide], the figures for the IC50 in test [1] and in test [2] were at most 300 nM and 430 nM, respectively.
For `O=C(NC[C@H]1CC[C@H](NCc2cccnc2F)CC1)c1cc(C(F)(F)F)cc(C(F)(F)F)c1` [Compound 27, N-((trans-4-((2-fluoropyridin-3-yl)methylamino)cyclohexyl)methyl)-3,5-bis(trifluoromethyl)benzamide], the IC50 (usually the concentration at which inhibition is half-maximal) was 1970 nM in test [1] and 9760 nM in test [2].
Turning to `CC(C)NC(=O)CN[C@H]1CC[C@H](CNC(=O)c2cc(C(F)(F)F)cc(C(F)(F)F)c2)CC1` [Compound 74, N-((trans-4-(2-(isopropylamino)-2-oxoethylamino)cyclohexyl)methyl)-3,5-bis(trifluoromethyl)benzamide], the IC50 in test [1] amounted to 2350 nM; in test [2] it was 650 nM.
The corresponding values for `O=C(CN[C@H]1CC[C@@H](CNC(=O)c2cc(C(F)(F)F)cc(C(F)(F)F)c2)CC1)NN1CCCCC1` [Compound 45, N-((cis-4-(2-oxo-2-(piperidin-1-ylamino)ethylamino)cyclohexyl)methyl)-3,5-bis(trifluoromethyl)benzamide] are at most 300 nM and 450 nM.
On the same counts, the results for `COc1cc(F)cc(C(=O)NC[C@H]2CC[C@@H](NCC(=O)N3CCOCC3(C)C)CC2)c1` [Compound 198, N-(((1s,4s)-4-(2-(3,3-dimethylmorpholino)-2-oxoethylamino)cyclohexyl)methyl)-3-fluoro-5-methoxybenzamide] are 9920 nM and 630 nM.
Take `O=C(NC[C@H]1CC[C@@H](NCc2c(O)cccc2F)CC1)c1cc(F)cc(C(F)(F)F)c1` [Compound 22, 3-fluoro-N-((cis-4-(2-fluoro-6-hydroxybenzylamino)cyclohexyl)methyl)-5-(trifluoromethyl)benzamide]: the IC50 in test [1] came out at 990 nM; in test [2] it was 3080 nM.
On the same counts, the results for `COC1CCC(N(C)C(=O)CN[C@H]2CC[C@@H](CNC(=O)c3cc(C(F)(F)F)cc(C(F)(F)F)c3)CC2)CC1` (stereo partly drawn) [Compound 50, N-((cis-4-(2-((4-methoxycyclohexyl)(methyl)amino)-2-oxoethylamino)cyclohexyl)methyl)-3,5-bis(trifluoromethyl)benzamide] are 4280 nM and 2470 nM.
Regarding `NC1(C(=O)N[C@H]2CC[C@H](CC(=O)Nc3cc(C(F)(F)F)cc(C(F)(F)F)c3)CC2)CCCCC1` [Compound 117, 1-amino-N-(trans-4-(2-(3,5-bis(trifluoromethyl)phenylamino)-2-oxoethyl)cyclohexyl)cyclohexanecarboxamide], the IC50 in test [1] is 1070 nM; in test [2] it was at least 10000 nM.
The corresponding values for `Cc1cc(F)cc(C(=O)NC[C@H]2CC[C@@H](NCC(=O)NC(C)(C)C)CC2)c1` [Compound 188, N-(((1s,4s)-4-(2-(tert-butylamino)-2-oxoethylamino)cyclohexyl)methyl)-3-fluoro-5-methylbenzamide] are 4280 nM and 1230 nM.
Consider `CC(C)(C)c1nc(CN[C@H]2CC[C@H](CNC(=O)c3cc(C(F)(F)F)cc(C(F)(F)F)c3)CC2)no1` [Compound 66, N-((trans-4-((5-tert-butyl-1,2,4-oxadiazol-3-yl)methylamino)cyclohexyl)methyl)-3,5-bis(trifluoromethyl)benzamide], for which the IC50 in test [1] is 1340 nM; in test [2], 3050 nM.
On the same counts, the results for `O=C(NC[C@H]1CC[C@@H](NCc2ccccc2O)CC1)c1cc(C(F)(F)F)cc(C(F)(F)F)c1` [Compound 7, N-((cis-4-(2-hydroxybenzylamino)cyclohexyl)methyl)-3,5-bis(trifluoromethyl)benzamide] are at most 300 nM and 1540 nM.
Consider `CN(C(=O)CN[C@H]1CC[C@H](CNC(=O)c2cc(F)cc(Cl)c2)CC1)C1(C)CCC1` [Compound 211, 3-chloro-5-fluoro-N-(((1r,4r)-4-(2-(methyl(1-methylcyclobutyl)amino)-2-oxoethylamino)cyclohexyl)methyl)benzamide], for which the IC50 was found to be 1180 nM in test [1] and 540 nM in test [2].
On the same counts, the results for `CC(C)(C)NC(=O)CN[C@H]1CC[C@H](CNC(=O)c2cc(F)cc(Cl)c2)CC1` [Compound 201, N-(((1r,4r)-4-(2-(tert-butylamino)-2-oxoethylamino)cyclohexyl)methyl)-3-chloro-5-fluorobenzamide] are 1800 nM and 570 nM.
On to `O=C(C[C@H]1CC[C@H](NC(=O)[C@@H]2C[C@@H](c3ccccc3)CN2)CC1)Nc1cc(C(F)(F)F)cc(C(F)(F)F)c1` [Compound 123, (2S,4S)-N-(trans-4-(2-(3,5-bis(trifluoromethyl)phenylamino)-2-oxoethyl)cyclohexyl)-4-phenylpyrrolidine-2-carboxamide], for which the IC50 in test [1] was at most 300 nM; in test [2], 2950 nM.
In the case of `O=C(C[C@H]1CC[C@@H](NC(=O)[C@@H]2C[C@@H](c3ccccc3)CN2)CC1)NCc1cccc(OC(F)(F)F)c1` [Compound 116, (2S,4S)-N-(cis-4-(2-oxo-2-(3-(trifluoromethoxy)benzylamino)ethyl)cyclohexyl)-4-phenylpyrrolidine-2-carboxamide], the IC50 in test [1] is 2890 nM; in test [2] it was at least 10000 nM.
On the same counts, the results for `O=C(C[C@H]1CC[C@@H](NC(=O)[C@H]2CCCN2)CC1)Nc1cc(C(F)(F)F)cc(C(F)(F)F)c1` [Compound 146, (R)-N-(cis-4-(2-(3,5-bis(trifluoromethyl)phenylamino)-2-oxoethyl)cyclohexyl)pyrrolidine-2-carboxamide] are 2790 nM and 7870 nM.
Regarding `O=C(NC[C@H]1CC[C@@H](NC(=O)[C@@H]2CC[C@H](c3ccccc3)N2)CC1)c1cc(C(F)(F)F)cc(C(F)(F)F)c1` [Compound 127, (2S,5R)-N-(cis-4-((3,5-bis(trifluoromethyl)benzamido)methyl)cyclohexyl)-5-phenylpyrrolidine-2-carboxamide], the IC50 stood at 1100 nM in test [1] and 4930 nM in test [2].
For the compound `CC1(NC(=O)CN[C@H]2CC[C@H](CNC(=O)c3cc(F)cc(Cl)c3)CC2)CCC1` [Compound 202, 3-chloro-5-fluoro-N-(((1r,4r)-4-(2-(1-methylcyclobutylamino)-2-oxoethylamino)cyclohexyl)methyl)benzamide], the IC50 amounted to 970 nM in test [1] and 310 nM in test [2].
The corresponding values for `CC1(C)COCCN1C(=O)CN[C@H]1CC[C@@H](CNC(=O)c2cc(F)cc(Cl)c2)CC1` [Compound 194, 3-chloro-N-(((1s,4s)-4-(2-(3,3-dimethylmorpholino)-2-oxoethylamino)cyclohexyl)methyl)-5-fluorobenzamide] are 3400 nM and 400 nM.
In the case of `O=C(NC[C@H]1CC[C@@H](NC(=O)[C@H]2CC[C@@H](c3ccccc3)N2)CC1)c1cc(C(F)(F)F)cc(C(F)(F)F)c1` [Compound 139, (2R,5S)-N-(cis-4-((3,5-bis(trifluoromethyl)benzamido)methyl)cyclohexyl)-5-phenylpyrrolidine-2-carboxamide], the IC50 in test [1] was determined as 1070 nM; in test [2] it was 7060 nM.
On the same counts, the results for `O=C(CCC(F)(F)F)NCCN[C@H]1CC[C@H](CNC(=O)c2cc(C(F)(F)F)cc(C(F)(F)F)c2)CC1` [Compound 102, N-((trans-4-(2-(4,4,4-trifluorobutanamido)ethylamino)cyclohexyl)methyl)-3,5-bis(trifluoromethyl)benzamide] are 970 nM and 1810 nM.
As to `Cc1cc(CN[C@H]2CC[C@@H](CNC(=O)c3cc(C(F)(F)F)cc(C(F)(F)F)c3)CC2)no1` [Compound 52, N-((cis-4-((5-methylisoxazol-3-yl)methylamino)cyclohexyl)methyl)-3,5-bis(trifluoromethyl)benzamide], the IC50 in test [1] is 1240 nM; in test [2], 1330 nM.
The corresponding values for `CC(C)(C)C(O)CN[C@H]1CC[C@@H](CC(=O)Nc2cc(C(F)(F)F)cc(C(F)(F)F)c2)CC1` (stereo partly drawn) [Compound 150, N-(3,5-bis(trifluoromethyl)phenyl)-2-(cis-4-(2-hydroxy-3,3-dimethylbutylamino)cyclohexyl)acetamide] are at most 300 nM and 524 nM.
With `COC1CCC(N(C)C(=O)CN[C@H]2CC[C@H](CNC(=O)c3cc(C(F)(F)F)cc(C(F)(F)F)c3)CC2)CC1` (stereo partly drawn) [Compound 65, N-((trans-4-(2-((4-methoxycyclohexyl)(methyl)amino)-2-oxoethylamino)cyclohexyl)methyl)-3,5-bis(trifluoromethyl)benzamide], the IC50 in test [1] was 8020 nM; in test [2], 7360 nM.
The corresponding values for `CC1(NC(=O)CN[C@H]2CC[C@@H](CNC(=O)c3cc(F)cc(Cl)c3)CC2)CCC1` [Compound 193, 3-chloro-5-fluoro-N-(((1s,4s)-4-(2-(1-methylcyclobutylamino)-2-oxoethylamino)cyclohexyl)methyl)benzamide] are 720 nM and 230 nM.
The corresponding values for `O=C(NC[C@H]1CC[C@@H](NCc2c(F)cccc2Cl)CC1)c1cc(C(F)(F)F)cc(C(F)(F)F)c1` [Compound 13, N-((cis-4-(2-chloro-6-fluorobenzylamino)cyclohexyl)methyl)-3,5-bis(trifluoromethyl)benzamide] are 460 nM and 2830 nM.
Consider `CC(C)(C)NC(=O)CN[C@H]1CC[C@@H](CNC(=O)c2cc(F)cc(Cl)c2)CC1` [Compound 186, N-(((1s,4s)-4-(2-(tert-butylamino)-2-oxoethylamino)cyclohexyl)methyl)-3-chloro-5-fluorobenzamide], for which the IC50 in test [1] was found to be 1180 nM; in test [2] it was 260 nM.

Values taken from patent US20090298834A1, “4-(AMINOMETHYL)CYCLOHEXANAMINE DERIVATIVES AS CALCIUM CHANNEL BLOCKERS” (priority 2008, published 2009).
